Measurements reported in PubChem BioAssay AID2060510 (Molecular Pharmacology Branch, DTP, NCI, 2025).

Test system: 439559-082-T-J2-PDC spheroids viability
Experiment: Anticancer human tumor 439559-082-T-J2-PDC patient-derived colon adenocarcinoma cell line growth inhibition [GQUAD]
Settings: for IC50: curve of first compound; for viability, T/C: stronger effect = lower value
Method in brief: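 Tumor cells were grown as complex spheroids with HUVEC endothelial cells and mesenchymal stem cells as stroma. G-quadruplex stabilizers were combined with targeted agents over half-log dilutions from near the clinical Cmax, or from 10 microM.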

[1] = second compound 0.0316 µM, first compound 0.0316 µM
[2] = second compound 0.0316 µM, first compound 0.1 µM
[3] = second compound 0.0316 µM, first compound 0.316 µM
[4] = second compound 0.0316 µM, first compound 1 µM
[5] = second compound 0.0316 µM, first compound 3.16 µM
[6] = second compound 0.0316 µM, first compound 10 µM
[7] = second compound 0.1 µM, first compound 0.0316 µM
[8] = second compound 0.1 µM, first compound 0.1 µM
[9] = second compound 0.1 µM, first compound 0.316 µM
[10] = second compound 0.1 µM, first compound 1 µM
[11] = second compound 0.1 µM, first compound 3.16 µM
[12] = second compound 0.1 µM, first compound 10 µM
[13] = second compound 0.316 µM, first compound 0.0316 µM
[14] = second compound 0.316 µM, first compound 0.1 µM
[15] = second compound 0.316 µM, first compound 0.316 µM
[16] = second compound 0.316 µM, first compound 1 µM
[17] = second compound 0.316 µM, first compound 3.16 µM
[18] = second compound 0.316 µM, first compound 10 µM
[19] = second compound 1 µM, first compound 0.0316 µM
[20] = second compound 1 µM, first compound 0.1 µM
[21] = second compound 1 µM, first compound 0.316 µM
[22] = second compound 1 µM, first compound 1 µM
[23] = second compound 1 µM, first compound 3.16 µM
[24] = second compound 1 µM, first compound 10 µM
[25] = second compound 3.16 µM, first compound 0.0316 µM
[26] = second compound 3.16 µM, first compound 0.1 µM
[27] = second compound 3.16 µM, first compound 0.316 µM
[28] = second compound 3.16 µM, first compound 1 µM
[29] = second compound 3.16 µM, first compound 3.16 µM
[30] = second compound 3.16 µM, first compound 10 µM
[31] = second compound 10 µM, first compound 0.0316 µM
[32] = second compound 10 µM, first compound 0.1 µM
[33] = second compound 10 µM, first compound 0.316 µM
[34] = second compound 10 µM, first compound 1 µM
[35] = second compound 10 µM, first compound 3.16 µM
[36] = second compound 10 µM, first compound 10 µM
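Further: spheroids exposed to the agents for 7 days before readout.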
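Wherever viability, T/C is given: percent of luminescence signal in DMSO vehicle wells taken as 100% viability.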

C=CCn1c(=O)c2cnc(Nc3ccc(N4CCN(C)CC4)cc3)nc2n1-c1cccc(C(C)(C)O)n1 + Cc1[nH]c2ccc(F)cc2c1-c1nc2c3cccnc3c3ncccc3c2[nH]1
IC50 (second compound 0.0316 µM): 7.9 µM | IC50 (second compound 0.1 µM): > 10 µM | IC50 (second compound 0.316 µM): 8.08 µM | IC50 (second compound 1 µM): 8.33 µM | IC50 (second compound 3.16 µM): 5.74 µM | IC50 (second compound 10 µM): 5.56 µM | viability, T/C [1]: 94.2% | viability, T/C [2]: 92.7% | viability, T/C [3]: 97.6% | viability, T/C [4]: 101% | viability, T/C [5]: 115% | viability, T/C [6]: 37% | viability, T/C [7]: 96.6% | viability, T/C [8]: 88.4% | viability, T/C [9]: 103% | viability, T/C [10]: 92.9% | viability, T/C [11]: 98.5% | viability, T/C [12]: 57.4% | viability, T/C [13]: 97.7% | viability, T/C [14]: 102% | viability, T/C [15]: 89% | viability, T/C [16]: 104% | viability, T/C [17]: 106% | viability, T/C [18]: 38.6% | viability, T/C [19]: 107% | viability, T/C [20]: 99% | viability, T/C [21]: 100% | viability, T/C [22]: 95.7% | viability, T/C [23]: 96.9% | viability, T/C [24]: 41.2% | viability, T/C [25]: 80.5% | viability, T/C [26]: 80.2% | viability, T/C [27]: 78.7% | viability, T/C [28]: 75.5% | viability, T/C [29]: 76.1% | viability, T/C [30]: 25.9% | viability, T/C [31]: 97.4% | viability, T/C [32]: 71.8% | viability, T/C [33]: 72.6% | viability, T/C [34]: 71.3% | viability, T/C [35]: 80.4% | viability, T/C [36]: 20.3%

CC(C)(O)C1CCC(Nc2ccc3ncc(-c4cccc(C(F)(F)F)c4)n3n2)CC1 (centres undefined) + Cc1[nH]c2ccc(F)cc2c1-c1nc2c3cccnc3c3ncccc3c2[nH]1
IC50 (second compound 0.0316 µM): > 10 µM | IC50 (second compound 0.1 µM): 7.93 µM | IC50 (second compound 0.316 µM): > 10 µM | IC50 (second compound 1 µM): 6.31 µM | IC50 (second compound 3.16 µM): 3.21 µM | IC50 (second compound 10 µM): 1.23 µM | viability, T/C [1]: 99.4% | viability, T/C [2]: 85.6% | viability, T/C [3]: 70.6% | viability, T/C [4]: 66% | viability, T/C [5]: 58.8% | viability, T/C [6]: 48.6% | viability, T/C [7]: 102% | viability, T/C [8]: 78% | viability, T/C [9]: 77.9% | viability, T/C [10]: 58.8% | viability, T/C [11]: 66.2% | viability, T/C [12]: 42.9% | viability, T/C [13]: 86.3% | viability, T/C [14]: 76.6% | viability, T/C [15]: 62.4% | viability, T/C [16]: 61.9% | viability, T/C [17]: 53.6% | viability, T/C [18]: 50.1% | viability, T/C [19]: 87.1% | viability, T/C [20]: 69.1% | viability, T/C [21]: 76.4% | viability, T/C [22]: 66.3% | viability, T/C [23]: 61.4% | viability, T/C [24]: 42.5% | viability, T/C [25]: 77.8% | viability, T/C [26]: 73% | viability, T/C [27]: 62.3% | viability, T/C [28]: 51.3% | viability, T/C [29]: 57.7% | viability, T/C [30]: 41.1% | viability, T/C [31]: 75.8% | viability, T/C [32]: 73% | viability, T/C [33]: 63.4% | viability, T/C [34]: 50.6% | viability, T/C [35]: 44.5% | viability, T/C [36]: 38.2%
